Source: patent publication US8071586B2, “Heterocyclyl compounds” (Hoffmann-La Roche Inc., priority 2008, dated 2011)

The compounds below were run against T1, human chemokine receptor 2 isoform B (CCR2) (Homo sapiens, UniProt P41597) (assay: Calcium mobilization assay (FLIPR, MCP-1 stimulated CHOK1-CCR2B-A5 cells)). Conditions: Ca mobilisation assay, CCR2 antagonist activity, inhibition of MCP-1 induced calcium increase.
T1 sequence (P41597 1-360 isoform P41597-2): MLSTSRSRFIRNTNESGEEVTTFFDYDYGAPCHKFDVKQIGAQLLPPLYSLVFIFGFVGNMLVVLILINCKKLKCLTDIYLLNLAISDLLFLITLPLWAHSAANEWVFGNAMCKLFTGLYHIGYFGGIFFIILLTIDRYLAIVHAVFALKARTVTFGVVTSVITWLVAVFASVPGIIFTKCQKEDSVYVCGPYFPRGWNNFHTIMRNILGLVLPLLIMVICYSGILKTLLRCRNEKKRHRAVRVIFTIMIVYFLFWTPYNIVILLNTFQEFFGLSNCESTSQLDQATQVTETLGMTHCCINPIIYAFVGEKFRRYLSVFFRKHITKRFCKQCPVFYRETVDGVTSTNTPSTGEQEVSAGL
Type: cell-based
Method: Calcium Mobilization Assay
CHOK1-CCR2B-A5 cells (from Euroscreen) stably overexpressing the human chemokine receptor 2 isoform B were cultured in Nutrient Hams F12 medium supplemented with 5% FBS, 100 U/ml penicillin, 100 μg/ml streptomycin, 400 μg/ml G418 and 5 μg/ml puromycin.
For the assay cells were grown overnight in 384-well black clear flat bottom polystyrene plates (Costar) at 37° C. at 5% CO2. After washing with DMEM, 20 mM Hepes, 2.5 mM probenecid, 0.1% BSA (DMEM assay buffer) cells were loaded with 4 μM Fluo-4 in the same DMEM assay buffer for 2 hours at 30° C. Excess dye was removed and cells were washed with DMEM assay buffer. 384-well compound plates were prepared with DMEM assay buffer/0.5% DMSO with or without various concentrations of test compounds. Usually compounds were tested for agonist and antagonist activity.
Test compounds were added to the assay plate and agonist activity was monitored as fluorescence for 80 seconds with a FLIPR (488 nm excitation; 510-570 nm emission; Molecular Devices). After 20-30 min. of incubation at 30° C., […] MCP-1 (R&D; Roche) was added and fluorescence was monitored again for 80 seconds. Increases in intracellular calcium are reported as maximum fluorescence after agonist exposure minus basal fluorescence before exposure. Antagonist activity is indicated as inhibitor concentration required for 50% inhibition of specific calcium increases.

SMILES | IC50 [nM]
C[C@H]1C(=O)N(CCCN2CCC3(CC3)[C@H](O)C2)CCN1C(=O)Nc1cccc(-c2ccccc2)c1 [Example 78, (S)-4-[3-((S)-4-Hydroxy-6-aza-spiro[2.5]oct-6-yl)-propyl]-2-methyl-3-oxo-piperazine-1-carboxylic acid biphenyl-3-ylamide] | 2
C[C@H]1C(=O)N([C@@H](CCN2CCC3(CC3)[C@H](O)C2)C(=O)N(C)C)CCN1C(=O)Nc1cccc(Cl)c1 [Example 125, (S)-4-[(S)-1-Dimethylcarbamoyl-3-((S)-4-hydroxy-6-aza-spiro[2.5]oct-6-yl)-propyl]-2-methyl-3-oxo-piperazine-1-carboxylic acid (3-chloro-phenyl)-amide] | 16
C[C@H]1C(=O)N(C[C@H](O)CN2CCC3(CC3)[C@H](O)C2)CCN1C(=O)Nc1ccc(Cl)c(Cl)c1 [Example 122, (S)-4-[(R)-2-Hydroxy-3-((S)-4-hydroxy-6-aza-spiro[2.5]oct-6-yl)-propyl]-2-methyl-3-oxo-piperazine-1-carboxylic acid (3,4-dichloro-phenyl)-amide] | 23
C[C@H]1C(=O)N(CCCN2CCC3(CC3)[C@H](O)C2)CCN1C(=O)Nc1ccccc1 [Example 74, (S)-4-[3-((S)-4-Hydroxy-6-aza-spiro[2.5]oct-6-yl)-propyl]-2-methyl-3-oxo-piperazine-1-carboxylic acid phenylamide] | 64
C[C@H]1C(=O)N([C@H](CO)CCN2CCC3(CC3)[C@H](O)C2)CCN1C(=O)Nc1ccc(Cl)c(Cl)c1 [Example 106, (S)-4-[(S)-3-((S)-4-Hydroxy-6-aza-spiro[2.5]oct-6-yl)-1-hydroxymethyl-propyl]-2-methyl-3-oxo-piperazine-1-carboxylic acid (3,4-dichloro-phenyl)-amide] | 1
COC[C@H](CCN1CCCCC1)N1CCN(C(=O)Nc2ccc(Cl)c(Cl)c2)[C@@H](C)C1=O [Example 81, (S)-4-((S)-1-Methoxymethyl-3-piperidin-1-yl-propyl)-2-methyl-3-oxo-piperazine-1-carboxylic acid (3,4-dichloro-phenyl)-amide] | 9
COC[C@H](CCN1CCC2(CC2)[C@H](O)C1)N1CCN(C(=O)Nc2ccccc2)[C@@H](C)C1=O [Example 84, (S)-4-[(S)-3-((S)-4-Hydroxy-6-aza-spiro[2.5]oct-6-yl)-1-methoxymethyl-propyl]-2-methyl-3-oxo-piperazine-1-carboxylic acid phenylamide] | 42
COC(=O)OC[C@H](CCN1CCC2(CC2)[C@H](O)C1)N1CCN(C(=O)Nc2ccc(Cl)c(Cl)c2)[C@@H](C)C1=O [Example 112, Carbonic acid (S)-2-[(S)-4-(3,4-dichloro-phenylcarbamoyl)-3-methyl-2-oxo-piperazin-1-yl]-4-((S)-4-hydroxy-6-aza-spiro[2.5]oct-6-yl)-butyl ester methyl ester] | 2
COC(=O)C(CCN1CCC2(CC2)[C@H](O)C1)N1CCN(C(=O)Nc2cccc(Cl)c2)CCC1=O (stereo partly drawn) [Example 1, (R,S)-2-[4-(3-Chloro-phenylcarbamoyl)-7-oxo-[1,4]diazepan-1-yl]-4-((S)-4-hydroxy-6-aza-spiro[2.5]oct-6-yl)-butyric acid methyl ester] | 470
C[C@H]1C(=O)N(CCCN2CCC3(CC3)[C@H](O)C2)CCN1C(=O)Nc1ccc(Cl)cc1 [Example 72, (S)-4-[3-((S)-4-Hydroxy-6-aza-spiro[2.5]oct-6-yl)-propyl]-2-methyl-3-oxo-piperazine-1-carboxylic acid (4-chloro-phenyl)-amide] | 8
C[C@@H]1CN(CCCN2CCC3(CC3)[C@H](O)C2)C(=O)CCN1C(=O)Nc1ccc(Cl)c(Cl)c1 [Example 58, (R)-4-[3-((S)-4-Hydroxy-6-aza-spiro[2.5]oct-6-yl)-propyl]-2-methyl-5-oxo-[1,4]diazepane-1-carboxylic acid (3,4-dichloro-phenyl)-amide] | 3
C[C@@H]1CN(CCCN2CCCCC2)C(=O)CCN1C(=O)Nc1ccc(Cl)c(Cl)c1 [Example 25, (R)-2-Methyl-5-oxo-4-(3-piperidin-1-yl-propyl)-[1,4]diazepane-1-carboxylic acid (3,4-dichloro-phenyl)-amide] | 380
COC[C@H](CCN1CCC2(CC2)[C@H](O)C1)N1CCN(C(=O)Nc2cccc(Cl)c2)[C@H](C)C1=O [Example 85, (R)-4-[(S)-3-((S)-4-Hydroxy-6-aza-spiro[2.5]oct-6-yl)-1-methoxymethyl-propyl]-2-methyl-3-oxo-piperazine-1-carboxylic acid (3-chloro-phenyl)-amide] | 180
COC(=O)[C@H](CCN1CCC2(CC2)[C@H](O)C1)N1C[C@@H](C)N(C(=O)Nc2cccc(Cl)c2)CCC1=O [Example 62, (S)-2-[(R)-4-(3-Chloro-phenylcarbamoyl)-3-methyl-7-oxo-[1,4]diazepan-1-yl]-4-((S)-4-hydroxy-6-aza-spiro[2.5]oct-6-yl)-butyric acid methyl ester] | 30
O=C(Nc1cccc(Cl)c1)N1CCC(=O)N(C(CO)CCN2CCC3(CC3)[C@H](O)C2)CC1 (stereo partly drawn) [Example 2, (R,S)-4-[3-((S)-4-Hydroxy-6-aza-spiro[2.5]oct-6-yl)-1-hydroxymethyl-propyl]-5-oxo-[1,4]diazepane-1-carboxylic acid (3-chloro-phenyl)-amide] | 40
C[C@@H]1CN(CCCN2CCC3(CC3)[C@H](O)C2)C(=O)CCN1C(=O)Nc1cccc(Cl)c1 [Example 60, (R)-4-[3-((S)-4-Hydroxy-6-aza-spiro[2.5]oct-6-yl)-propyl]-2-methyl-5-oxo-[1,4]diazepane-1-carboxylic acid (3-chloro-phenyl)-amide] | 60
C[C@H]1C(=O)N(CCCCN2CCC3(CC3)[C@H](O)C2)CCN1C(=O)Nc1cccc(-c2cccnc2)c1 [Example 94, (S)-4-[4-((S)-4-Hydroxy-6-aza-spiro[2.5]oct-6-yl)-butyl]-2-methyl-3-oxo-piperazine-1-carboxylic acid (3-pyridin-3-yl-phenyl)-amide] | 293
CC1CN(C(CO)CCN2CCC3(CC3)[C@H](O)C2)C(=O)CCN1C(=O)Nc1cccc(Cl)c1 (stereo in doubt) [Example 63, (R)-4-[(S)-3-((S)-4-Hydroxy-6-aza-spiro[2.5]oct-6-yl)-1-hydroxymethyl-propyl]-2-methyl-5-oxo-[1,4]diazepane-1-carboxylic acid (3-chloro-phenyl)-amide] | 5.1
O=C1CCN(C(=O)Nc2ccc(Cl)c(Cl)c2)CCN1CCCN1CCCCC1 [Example 11, 5-Oxo-4-(3-piperidin-1-yl-propyl)-[1,4]diazepane-1-carboxylic acid (3,4-dichloro-phenyl)-amide] | 980
CCCCCC(=O)OC[C@H](CCN1CCC2(CC2)[C@H](O)C1)N1CCN(C(=O)Nc2ccc(Cl)c(Cl)c2)[C@@H](C)C1=O [Example 116, Hexanoic acid (S)-2-[(S)-4-(3,4-dichloro-phenylcarbamoyl)-3-methyl-2-oxo-piperazin-1-yl]-4-((S)-4-hydroxy-6-aza-spiro[2.5]oct-6-yl)-butyl ester] | 5
C[C@H]1C(=O)N(CCCCN2CCC3(CC3)[C@H](O)C2)CCN1C(=O)Nc1cccc(C(F)(F)F)c1 [Example 89, (S)-4-[4-((S)-4-Hydroxy-6-aza-spiro[2.5]oct-6-yl)-butyl]-2-methyl-3-oxo-piperazine-1-carboxylic acid (3-trifluoromethyl-phenyl)-amide] | 25
C[C@H]1C(=O)N([C@@H](CCN2CCC3(CC3)[C@H](O)C2)COC(=O)C(C)(C)C)CCN1C(=O)Nc1ccc(Cl)c(Cl)c1 [Example 114, 2,2-Dimethyl-propionic acid (S)-2-[(S)-4-(3,4-dichloro-phenylcarbamoyl)-3-methyl-2-oxo-piperazin-1-yl]-4-((S)-4-hydroxy-6-aza-spiro[2.5]oct-6-yl)-butyl ester] | 6
C[C@H]1C(=O)N(CCCN2CCC[C@H]2CO)CCN1C(=O)Nc1ccc(Cl)c(Cl)c1 [Example 50, (S)-4-[3-((S)-2-Hydroxymethyl-pyrrolidin-1-yl)-propyl]-2-methyl-3-oxo-piperazine-1-carboxylic acid (3,4-dichloro-phenyl)-amide] | 120
COC[C@H](CCN1CCC2(CC2)[C@H](O)C1)N1CCN(C(=O)Nc2cccc(Cl)c2)[C@@H](C)C1=O [Example 82, (S)-4-[(S)-3-((S)-4-Hydroxy-6-aza-spiro[2.5]oct-6-yl)-1-methoxymethyl-propyl]-2-methyl-3-oxo-piperazine-1-carboxylic acid (3-chloro-phenyl)-amide] | 4
CN(C)C(=O)C(CCN1CCC2(CC2)[C@H](O)C1)N1CCN(C(=O)Nc2cccc(Cl)c2)CCC1=O (stereo partly drawn) [Example 10, (R,S)-4-[1-Dimethylcarbamoyl-3-((S)-4-hydroxy-6-aza-spiro[2.5]oct-6-yl)-propyl]-5-oxo-[1,4]diazepane-1-carboxylic acid (3-chloro-phenyl)-amide] | 780
